# Test results published in PMC11898654, “The Na^+-K^+-ATPase alpha subunit is an entry receptor for white spot syndrome virus” (mBio, 2025).
# Counter-ions that a name gives are not always drawn.
# Experiments:
# WSSV VP28 protein = WSSV VP28 protein (White spot syndrome virus, UniProt Q9ICB7); assay type: binding; conditions: SPR, different concentrations of the synthetic peptides
# Method: SPR experiments were conducted using a Biacore T200 system (GE Healthcare, USA). […] Regeneration of the sensor chip was performed by injecting glycine (pH 3.0) for 30 s at a flow rate of 30 µL/min. The Biacore Insight Evaluation Software application was utilized to analyze the association and dissociation rates using a steady state affinity analysis, and the equilibrium dissociation constant (KD) was determined as the ratio of the dissociation rate to the association rate.
# WSSV [1] = test: Endocytic inhibitors injected into shrimp, WSSV entry and replication in hemocytes; assay type: in vivo, White spot syndrome virus; conditions: shrimp injected with inhibitor before WSSV; for effect on WSSV entry and replication in shrimp hemocytes: qPCR and flow cytometry, entry 4 h, replication 24 h post-infection
# Method: Given that viruses enter host cells by exploiting various endocytic pathways, such as clathrin-mediated endocytosis, caveolin-mediated endocytosis, and macropinocytosis ([31]), we went on to examine which of these endocytic pathways is used by WSSV to enter hemocytes. […].
# Fig. S5 WSSV entry into shrimp hemocytes through multiple endocytic pathways. (A-F) Identification of endocytic pathways triggered by WSSV. Shrimps were injected with either WSSV or PBS (negative control), and hemocytes were harvested 4 hours post-infection. Hemocytes were incubated with endocytic markers TFN-AF555, CTB-AF555, and DTN-AF568, and uptake rates were analyzed by flow cytometry. Panels (A-C) display representative flow cytometry images for the uptake of TFN-AF555, CTB-AF555, and DTN-AF568, respectively. Quantified uptake rates from three independent experiments are shown in panels (D-F). (G-J) Impact of endocytic inhibitors on WSSV entry. Shrimps were injected with the inhibitors CPZ, GEN, or AMR, and hemocytes were collected 2 hours later for cytotoxicity analysis using the CCK8 kit (G). FITC-labeled or unlabeled WSSV particles were subsequently injected, and hemocytes were harvested 4 hours post-infection for flow cytometry (H) and qPCR (J) to assess WSSV entry. Data from three independent flow cytometry assays are presented in panel (I). (K) Effect of endocytic inhibitors on WSSV replication. Shrimps were injected with WSSV particles following inhibitor treatment, and hemocytes were collected 24 hours post-infection for WSSV copy number quantification via qPCR. Statistical significance was determined using a two-tailed Student’s t-test. * P < 0.05, ** P < 0.01, and *** P < 0.001.
# WSSV [2] = test: Endocytic inhibitor treatment, WSSV entry in PvATP1A-overexpressing PAC2 cells; assay type: cell-based, White spot syndrome virus; conditions: 5 µM inhibitor pre-treatment 30 min, WSSV MOI = 0.1 for 1 h, qPCR, compared with cells treated with CPZ
# Method: Endocytic inhibitors, chlorpromazine hydrochloride (CPZ, Cat. No. HY-B0407A), genistein (GEN, Cat. No. HY-14596), and amiloride hydrochloride (AMR, Cat. No. HY-B0285A), were purchased from MedChemexpress. Zebrafish PAC2 fibroblast cells were transfected with either the PvATP1A expression plasmid (pEGFP-N1-PvATP1A) or the control plasmid pEGFP-N1. Forty-eight hours post-transfection, cells expressing pEGFP-PvATP1A were pre-treated with 5 µM of each endocytic inhibitor (CPZ, GEN, and AMR) or DMSO (as a control) for 30 min. Following pre-treatment, cells were infected with WSSV (MOI = 0.1) for 1 h. The cells were then washed thrice with PBS, and DNA was extracted for quantification of WSSV copy numbers using qPCR. Cytotoxicity of the endocytic inhibitors on PAC2 cells was assessed using the CCK8 kit (Beyotime, China, Cat. No. C0037), following the manufacturer’s instructions.
Compound,change in response units (RU) of the VP28-coated chip (WSSV VP28 protein),ranking among the endocytic inhibitors for virus entry (WSSV [1]),effect on WSSV entry and replication in shrimp hemocytes (WSSV [1]),"WSSV entry, viral copy numbers in PvATP1A-overexpressing cells (WSSV [2])"
MVSKGEELFT [pEGFP],no changes in the response units,,,
"O=c1c(-c2ccc(O)cc2)coc2cc(O)cc(O)c12 [GEN, genistein]",,most potent inhibitors of virus entry,inhibited WSSV entry and replication,significantly decreased viral copy numbers
"N=C(N)NC(=O)c1nc(Cl)c(N)nc1N [AMR, amiloride hydrochloride]",,,inhibited WSSV entry and replication,significantly decreased viral copy numbers
"CN(C)CCCN1c2ccccc2Sc2ccc(Cl)cc21 [CPZ, chlorpromazine hydrochloride]",,,inhibited WSSV entry and replication,
